# Tested on: Stress protein genes
# Experiment: DNA chip mRNA expression in yeast, stress protein genes (Table 6)
# Format: cell-based, Saccharomyces cerevisiae S288C
# In short: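 S. cerevisiae S288C grown at 25° C in YPD were exposed in log phase for two hours to one toxic chemical at a growth-inhibiting, non-lethal concentration; untreated cells served as control. Poly(A) mRNA was reverse-transcribed with Cy3/Cy5-dUTP and hybridized to a whole-genome yeast DNA chip at 65° C for over 12 hours; values are fluorescence ratios versus untreated.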
structure (smiles),measurement,setting,value
"Cl[C@H]1[C@H](Cl)[C@@H](Cl)[C@@H](Cl)[C@H](Cl)[C@H]1Cl [(7), γ-hexachlorocyclohexane]",The level of expressed mRNA in the presence of chemical substance/The level of expressed mRNA in the absence of chemical substance,yeast gene YAL005C,1.2
same,The level of expressed mRNA in the presence of chemical substance/The level of expressed mRNA in the absence of chemical substance,yeast gene YAL015C,1.2
same,The level of expressed mRNA in the presence of chemical substance/The level of expressed mRNA in the absence of chemical substance,yeast gene YBL075C,1.3
same,The level of expressed mRNA in the presence of chemical substance/The level of expressed mRNA in the absence of chemical substance,yeast gene YBL093C,1.3
same,The level of expressed mRNA in the presence of chemical substance/The level of expressed mRNA in the absence of chemical substance,yeast gene YBR044C,1.5
same,The level of expressed mRNA in the presence of chemical substance/The level of expressed mRNA in the absence of chemical substance,yeast gene YBR054W,0.6
same,The level of expressed mRNA in the presence of chemical substance/The level of expressed mRNA in the absence of chemical substance,yeast gene YBR067C,1.1
same,The level of expressed mRNA in the presence of chemical substance/The level of expressed mRNA in the absence of chemical substance,yeast gene YBR072W,6.6
same,The level of expressed mRNA in the presence of chemical substance/The level of expressed mRNA in the absence of chemical substance,yeast gene YBR126C,2.3
same,The level of expressed mRNA in the presence of chemical substance/The level of expressed mRNA in the absence of chemical substance,yeast gene YBR169C,2.5
same,The level of expressed mRNA in the presence of chemical substance/The level of expressed mRNA in the absence of chemical substance,yeast gene YCL035C,2.7
same,The level of expressed mRNA in the presence of chemical substance/The level of expressed mRNA in the absence of chemical substance,yeast gene YCR021C,0.9
same,The level of expressed mRNA in the presence of chemical substance/The level of expressed mRNA in the absence of chemical substance,yeast gene YCR060W,2.4
same,The level of expressed mRNA in the presence of chemical substance/The level of expressed mRNA in the absence of chemical substance,yeast gene YCR083W,1.8
same,The level of expressed mRNA in the presence of chemical substance/The level of expressed mRNA in the absence of chemical substance,yeast gene YDL022W,1.5
same,The level of expressed mRNA in the presence of chemical substance/The level of expressed mRNA in the absence of chemical substance,yeast gene YDL025C,1.0
same,The level of expressed mRNA in the presence of chemical substance/The level of expressed mRNA in the absence of chemical substance,yeast gene YDR033W,0.8
same,The level of expressed mRNA in the presence of chemical substance/The level of expressed mRNA in the absence of chemical substance,yeast gene YDR077W,0.7
same,The level of expressed mRNA in the presence of chemical substance/The level of expressed mRNA in the absence of chemical substance,yeast gene YDR098C,1.5
same,The level of expressed mRNA in the presence of chemical substance/The level of expressed mRNA in the absence of chemical substance,yeast gene YDR155C,1.2
same,The level of expressed mRNA in the presence of chemical substance/The level of expressed mRNA in the absence of chemical substance,yeast gene YDR258C,3.9
same,The level of expressed mRNA in the presence of chemical substance/The level of expressed mRNA in the absence of chemical substance,yeast gene YDR293C,0.9
same,The level of expressed mRNA in the presence of chemical substance/The level of expressed mRNA in the absence of chemical substance,yeast gene YDR436W,1.2
same,The level of expressed mRNA in the presence of chemical substance/The level of expressed mRNA in the absence of chemical substance,yeast gene YDR513W,1.6
same,The level of expressed mRNA in the presence of chemical substance/The level of expressed mRNA in the absence of chemical substance,yeast gene YDR519W,1.9
same,The level of expressed mRNA in the presence of chemical substance/The level of expressed mRNA in the absence of chemical substance,yeast gene YEL030W,0.9
same,The level of expressed mRNA in the presence of chemical substance/The level of expressed mRNA in the absence of chemical substance,yeast gene YEL039C,0.6
same,The level of expressed mRNA in the presence of chemical substance/The level of expressed mRNA in the absence of chemical substance,yeast gene YER042W,1.1
same,The level of expressed mRNA in the presence of chemical substance/The level of expressed mRNA in the absence of chemical substance,yeast gene YER057C,1.4
same,The level of expressed mRNA in the presence of chemical substance/The level of expressed mRNA in the absence of chemical substance,yeast gene YER103W,1.0
same,The level of expressed mRNA in the presence of chemical substance/The level of expressed mRNA in the absence of chemical substance,yeast gene YER125W,0.8
same,The level of expressed mRNA in the presence of chemical substance/The level of expressed mRNA in the absence of chemical substance,yeast gene YFL014W,5.5
same,The level of expressed mRNA in the presence of chemical substance/The level of expressed mRNA in the absence of chemical substance,yeast gene YFL016C,1.4
same,The level of expressed mRNA in the presence of chemical substance/The level of expressed mRNA in the absence of chemical substance,yeast gene YFL020C,1.4
same,The level of expressed mRNA in the presence of chemical substance/The level of expressed mRNA in the absence of chemical substance,yeast gene YFR052W,2.2
same,The level of expressed mRNA in the presence of chemical substance/The level of expressed mRNA in the absence of chemical substance,yeast gene YGL073W,1.3
same,The level of expressed mRNA in the presence of chemical substance/The level of expressed mRNA in the absence of chemical substance,yeast gene YGL115W,1.4
same,The level of expressed mRNA in the presence of chemical substance/The level of expressed mRNA in the absence of chemical substance,yeast gene YGL181W,1.3
same,The level of expressed mRNA in the presence of chemical substance/The level of expressed mRNA in the absence of chemical substance,yeast gene YGR088W,0.8
same,The level of expressed mRNA in the presence of chemical substance/The level of expressed mRNA in the absence of chemical substance,yeast gene YHL028W,2.1
same,The level of expressed mRNA in the presence of chemical substance/The level of expressed mRNA in the absence of chemical substance,yeast gene YHL046C,1.3
same,The level of expressed mRNA in the presence of chemical substance/The level of expressed mRNA in the absence of chemical substance,yeast gene YHR030C,1.8
same,The level of expressed mRNA in the presence of chemical substance/The level of expressed mRNA in the absence of chemical substance,yeast gene YHR057C,1.3
same,The level of expressed mRNA in the presence of chemical substance/The level of expressed mRNA in the absence of chemical substance,yeast gene YHR104W,1.5
same,The level of expressed mRNA in the presence of chemical substance/The level of expressed mRNA in the absence of chemical substance,yeast gene YIL011W,0.6
same,The level of expressed mRNA in the presence of chemical substance/The level of expressed mRNA in the absence of chemical substance,yeast gene YIL033C,1.1
same,The level of expressed mRNA in the presence of chemical substance/The level of expressed mRNA in the absence of chemical substance,yeast gene YIR037W,1.8
same,The level of expressed mRNA in the presence of chemical substance/The level of expressed mRNA in the absence of chemical substance,yeast gene YIR038C,2.0
same,The level of expressed mRNA in the presence of chemical substance/The level of expressed mRNA in the absence of chemical substance,yeast gene YJL128C,1.8
same,The level of expressed mRNA in the presence of chemical substance/The level of expressed mRNA in the absence of chemical substance,yeast gene YJL158C,0.4
same,The level of expressed mRNA in the presence of chemical substance/The level of expressed mRNA in the absence of chemical substance,yeast gene YJL159W,0.9
same,The level of expressed mRNA in the presence of chemical substance/The level of expressed mRNA in the absence of chemical substance,yeast gene YJL165C,0.8
same,The level of expressed mRNA in the presence of chemical substance/The level of expressed mRNA in the absence of chemical substance,yeast gene YJR045C,1.0
same,The level of expressed mRNA in the presence of chemical substance/The level of expressed mRNA in the absence of chemical substance,yeast gene YJR090C,0.8
same,The level of expressed mRNA in the presence of chemical substance/The level of expressed mRNA in the absence of chemical substance,yeast gene YKL161C,2.0
same,The level of expressed mRNA in the presence of chemical substance/The level of expressed mRNA in the absence of chemical substance,yeast gene YKL163W,0.9
same,The level of expressed mRNA in the presence of chemical substance/The level of expressed mRNA in the absence of chemical substance,yeast gene YKL164C,0.8
same,The level of expressed mRNA in the presence of chemical substance/The level of expressed mRNA in the absence of chemical substance,yeast gene YKL210W,1.0
same,The level of expressed mRNA in the presence of chemical substance/The level of expressed mRNA in the absence of chemical substance,yeast gene YKR053C,1.7
same,The level of expressed mRNA in the presence of chemical substance/The level of expressed mRNA in the absence of chemical substance,yeast gene YLL024C,1.1
same,The level of expressed mRNA in the presence of chemical substance/The level of expressed mRNA in the absence of chemical substance,yeast gene YLL026W,2.9
same,The level of expressed mRNA in the presence of chemical substance/The level of expressed mRNA in the absence of chemical substance,yeast gene YLL039C,1.1
same,The level of expressed mRNA in the presence of chemical substance/The level of expressed mRNA in the absence of chemical substance,yeast gene YLL060C,2.0
same,The level of expressed mRNA in the presence of chemical substance/The level of expressed mRNA in the absence of chemical substance,yeast gene YLR006C,1.1
same,The level of expressed mRNA in the presence of chemical substance/The level of expressed mRNA in the absence of chemical substance,yeast gene YLR109W,2.6
same,The level of expressed mRNA in the presence of chemical substance/The level of expressed mRNA in the absence of chemical substance,yeast gene YLR259C,1.8
same,The level of expressed mRNA in the presence of chemical substance/The level of expressed mRNA in the absence of chemical substance,yeast gene YML007W,1.1
same,The level of expressed mRNA in the presence of chemical substance/The level of expressed mRNA in the absence of chemical substance,yeast gene YML070W,3.1
same,The level of expressed mRNA in the presence of chemical substance/The level of expressed mRNA in the absence of chemical substance,yeast gene YMR021C,2.5
same,The level of expressed mRNA in the presence of chemical substance/The level of expressed mRNA in the absence of chemical substance,yeast gene YMR173W,2.4
same,The level of expressed mRNA in the presence of chemical substance/The level of expressed mRNA in the absence of chemical substance,yeast gene YMR186W,1.2
same,The level of expressed mRNA in the presence of chemical substance/The level of expressed mRNA in the absence of chemical substance,yeast gene YNL064C,0.6
same,The level of expressed mRNA in the presence of chemical substance/The level of expressed mRNA in the absence of chemical substance,yeast gene YNL160W,2.4
same,The level of expressed mRNA in the presence of chemical substance/The level of expressed mRNA in the absence of chemical substance,yeast gene YNL241C,3.2
same,The level of expressed mRNA in the presence of chemical substance/The level of expressed mRNA in the absence of chemical substance,yeast gene YNR076W,1.2
same,The level of expressed mRNA in the presence of chemical substance/The level of expressed mRNA in the absence of chemical substance,yeast gene YOL064C,1.2
same,The level of expressed mRNA in the presence of chemical substance/The level of expressed mRNA in the absence of chemical substance,yeast gene YOL161C,0.9
same,The level of expressed mRNA in the presence of chemical substance/The level of expressed mRNA in the absence of chemical substance,yeast gene YOR008C,0.8
same,The level of expressed mRNA in the presence of chemical substance/The level of expressed mRNA in the absence of chemical substance,yeast gene YOR009W,0.6
same,The level of expressed mRNA in the presence of chemical substance/The level of expressed mRNA in the absence of chemical substance,yeast gene YOR010C,0.4
same,The level of expressed mRNA in the presence of chemical substance/The level of expressed mRNA in the absence of chemical substance,yeast gene YOR027W,1.3
same,The level of expressed mRNA in the presence of chemical substance/The level of expressed mRNA in the absence of chemical substance,yeast gene YOR208W,1.1
same,The level of expressed mRNA in the presence of chemical substance/The level of expressed mRNA in the absence of chemical substance,yeast gene YPL059W,0.7
same,The level of expressed mRNA in the presence of chemical substance/The level of expressed mRNA in the absence of chemical substance,yeast gene YPL106C,1.1
same,The level of expressed mRNA in the presence of chemical substance/The level of expressed mRNA in the absence of chemical substance,yeast gene YPL140C,1.4
same,The level of expressed mRNA in the presence of chemical substance/The level of expressed mRNA in the absence of chemical substance,yeast gene YPL194W,1.5
same,The level of expressed mRNA in the presence of chemical substance/The level of expressed mRNA in the absence of chemical substance,yeast gene YPL223C,1.1
same,The level of expressed mRNA in the presence of chemical substance/The level of expressed mRNA in the absence of chemical substance,yeast gene YPL240C,1.4
same,The level of expressed mRNA in the presence of chemical substance/The level of expressed mRNA in the absence of chemical substance,yeast gene YPR005C,1.2
same,The level of expressed mRNA in the presence of chemical substance/The level of expressed mRNA in the absence of chemical substance,yeast gene YPR026W,1.3

# From patent US8192962B2, “Processes for detecting toxic substances” (Daikin Industries, Ltd., priority 2001, dated 2012)
